According to ChEMBL document CHEMBL1128934, “Nonpeptide glycoprotein IIB/IIIA inhibitors. 12. Potent and orally active centrally constrained thieno[2,3-c]pyridones” (Bioorg Med Chem Lett, 1996):

Species on record: Homo sapiens
Test: Compound was evaluated for inhibition of ex vivo ADP mediated platelet aggregation of human gel filtered platelets
Assay type: functional

Compound	IC50 [nM]
C[C@H](CC(=O)O)NC(=O)c1cc2c(s1)CCN(CCC1CCNCC1)C2=O	220
O=C(NCc1ccccc1)N[C@@H](CNC(=O)c1cc2c(s1)CCN(CCC1CCNCC1)C2=O)C(=O)O	25
CCCCS(=O)(=O)N[C@@H](CNC(=O)c1cc2c(s1)CCN(CCC1CCNCC1)C2=O)C(=O)O	8
CCCCS(=O)(=O)N[C@@H](CNC(=O)c1csc2c1C(=O)N(CCC1CCNCC1)CC2)C(=O)O	33000
O=C(O)CCNC(=O)c1ccc2c(c1)C(=O)N(CCC1CCNCC1)C2	25
O=C(O)CCNC(=O)c1cc2c(s1)CCN(CCC1CCNCC1)C2=O	150
O=C(NC[C@H](NS(=O)(=O)c1cccnc1)C(=O)O)c1cc2c(s1)CCN(CCC1CCNCC1)C2=O	13
O=C(NC[C@H](NS(=O)(=O)c1ccccc1)C(=O)O)c1cc2c(s1)CCN(CCC1CCNCC1)C2=O	7
O=C(O)CCCC(=O)c1cc2c(s1)CCN(CCC1CCNCC1)C2=O	260
